Source: patent US20260199212A1, “USE OF L-CARNOSINE AGAINST SOLAR ELASTOSIS” (SYMRISE AG, priority 2022, published 2026)

Experiments:
tropoelastin = assay: Tropoelastin immunostaining in the papillary dermis of skin explants, semi-quantified by image analysis; format: cell-based, human; conditions: when applying L-Carnosine
Method: (§1) Human skin explants of an average diameter of 12 mm (+1 mm) were prepared on an abdo-plasty coming from a person with a phototype II according to Fitz-patrick skin colour classification. The explants were kept in survival in BEM culture medium (BIO-EC's Explants Medium) at 37° C. in a humid, 5%-CO2 atmosphere.
(§2) Compositions A and B were applied at the rate of 2 μL per 1 cm^2 skin sample (~2 mg/cm^2) and spread using a small spatula on day 0, day 1, day 2, day 3 and day 6 (30 min before infrared irradiation exposure). […] The culture medium was half renewed (1 ml per well) on day 2, day 3 and day 6.
(§3) On day 6, the culture media of all the batches was replaced by HBSS (Hank's Balanced Saline Solution; 1 ml per explant). The batches IR, IR-C2, and IR-T were irradiated using a infrared lamp (Dr FISCHER 1000W, 235V 2500K; 760-3000 nm), for 1:24 h (720 J/cm^2; 140 mW/cm^2). The non-irradiated batches were kept in HBSS in the dark. […]
Nuclei have been post stained with propidium iodide. The staining was assessed by microscopical observation and semi-quantified by image analysis. […]
Tropoelastin immunostaining was assessed by microscopical observation of skin sections with semi-quantification by image analysis using the software cellSens (Olympus).
(§4) Analysed zone: ROI including the papillary dermis.
(§5) Number of analysed images per batch: 9. […]

fibrillin-1 = assay: Fibrillin-1 immunostaining in the papillary dermis of skin explants, semi-quantified by image analysis; format: cell-based, human; conditions: after infrared irradiation
Method: as §1, §2, §3
Nuclei have been post-stained with propidium iodide. The staining was assessed by microscopical observation and semi-quantified by image analysis. […]
Fibrillin-1 immunostaining was assessed by microscopical observation of skin sections with semi-quantification by image analysis using the software cellSens (Olympus).
as §4, §5

## NCCC(=O)N[C@@H](Cc1cnc[nH]1)C(=O)O [L-Carnosine]
tropoelastin
  amounts of elastin after infrared irradiation versus without infrared irradiation: not significantly different
fibrillin-1
  amount of fibrillin-1 in the dermis: strongly increase
